Results taken from patent publication US9302999B2, “Substituted triazoles as herbicides” (E. I. DU PONT DE NEMOURS AND COMPANY, priority 2012, dated 2016).

What was measured:
Assay type in all cases: in vivo
[1] = tested on: barnyardgrass (Echinochloa crus-galli); experiment: Test A pre-/postemergence: barnyardgrass
Procedure, shortened: (§1)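 Injury is scored visually on a scale where 0 means no effect and 100 complete control, comparing treated with untreated plants after approximately ten greenhouse days. Both preemergence and postemergence applications are made at the same time.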

[2] = tested on: crabgrass, large (large crabgrass, Digitaria sanguinalis); experiment: Test A pre-/postemergence: crabgrass, large
Procedure, shortened: as §1

[3] = tested on: foxtail, giant (giant foxtail, Setaria faberii); experiment: Test A pre-/postemergence: foxtail, giant
Procedure, shortened: as §1

[4] = tested on: morningglory (Ipomoea spp.); experiment: Test A pre-/postemergence: morningglory
Procedure, shortened: as §1

[5] = tested on: pigweed (Amaranthus retroflexus); experiment: Test A pre-/postemergence: pigweed
Procedure, shortened: as §1

[6] = tested on: velvetleaf (Abutilon theophrasti); experiment: Test A pre-/postemergence: velvetleaf
Procedure, shortened: as §1

[7] = tested on: wheat (Triticum aestivum); experiment: Test A pre-/postemergence: wheat
Procedure, shortened: as §1

corn (Zea mays) = experiment: Test A pre-/postemergence: corn
Procedure, shortened: as §1

rice (Oryza sativa) = experiment: Test C flooded paddy test: rice; settings: scale 0 to 100 (0 no effect, 100 complete control)
Procedure, shortened: (§2)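 Rating: visual, 0–100 (100 = complete control), versus untreated controls after 13 to 15 greenhouse days. Treatment went into paddy water held at 3 cm over the soil, on plants grown to two leaves.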

[8] = tested on: sedge, umbrella (small-flower umbrella sedge, Cyperus difformis); experiment: Test C flooded paddy test: sedge, umbrella; settings: scale 0 to 100 (0 no effect, 100 complete control)
Procedure, shortened: as §2

[9] = tested on: ducksalad (Heteranthera limosa); experiment: Test C flooded paddy test: ducksalad; settings: scale 0 to 100 (0 no effect, 100 complete control)
Procedure, shortened: as §2

[10] = tested on: barnyardgrass (Echinochloa crus-galli); experiment: Test C flooded paddy test: barnyardgrass; settings: scale 0 to 100 (0 no effect, 100 complete control)
Procedure, shortened: as §2

[11] = Postemergence, 1000 g ai/ha, visual rating on 0 to 100 scale (0 no effect, 100 complete control), approximately ten days
[12] = Preemergence, 1000 g ai/ha, 0 to 100 scale, 0 is no effect, 100 is complete control
[13] = Flood (flooded paddy test), 125 g ai/ha, visual rating after 13 to 15 days
[14] = Flood (flooded paddy test), 250 g ai/ha, visual rating after 13 to 15 days
[15] = Postemergence, 125 g ai/ha, 0 to 100 scale, 0 is no effect, 100 is complete control
[16] = Postemergence, 500 g ai/ha, visual rating on 0 to 100 scale (0 no effect, 100 complete control), approximately ten days
[17] = Preemergence, 125 g ai/ha, 0 to 100 scale (0 no effect, 100 complete control)
[18] = Preemergence, 500 g ai/ha, 0 to 100 scale, 0 is no effect, 100 is complete control
[19] = Preemergence, 125 g ai/ha, 0 to 100 scale where 0 is no effect and 100 is complete control

Cc1nn(-c2ccc(F)cc2)nc1Cn1cnc(C(F)(F)F)n1 [Compound 94]
Barnyardgrass plant response rating [1, 11]: 40 | Barnyardgrass plant response rating [1, 12]: 70 | Crabgrass, Large plant response rating [2, 11]: 80 | Crabgrass, Large plant response rating [2, 12]: 100 | Foxtail, Giant plant response rating [3, 11]: 70 | Foxtail, Giant plant response rating [3, 12]: 100 | Morningglory plant response rating [4, 11]: 100 | Morningglory plant response rating [4, 12]: 60 | Pigweed plant response rating [5, 11]: 100 | Pigweed plant response rating [5, 12]: 100 | Velvetleaf plant response rating [6, 11]: 80 | Velvetleaf plant response rating [6, 12]: 20 | Wheat plant response rating [7, 11]: 30 | Wheat plant response rating [7, 12]: 0 | Corn plant response rating (corn (Zea mays); [11]): 40 | Corn plant response rating (corn (Zea mays); [12]): 0 | Plant response rating, Rice (rice (Oryza sativa); [13]): 0 | Plant response rating, Rice (rice (Oryza sativa); [14]): 0 | Plant response rating, Rice (rice (Oryza sativa); Flood, 31 g ai/ha): 0 | Plant response rating, Rice (rice (Oryza sativa); Flood, 62 g ai/ha): 0 | Plant response rating, Sedge, Umbrella [8, 13]: 60 | Plant response rating, Sedge, Umbrella [8, 14]: 75 | Plant response rating, Sedge, Umbrella ([8]; Flood, 31 g ai/ha): 0 | Plant response rating, Sedge, Umbrella ([8]; Flood, 62 g ai/ha): 50 | Plant response rating, Ducksalad [9, 13]: 40 | Plant response rating, Ducksalad [9, 14]: 60 | Plant response rating, Ducksalad ([9]; Flood, 31 g ai/ha): 0 | Plant response rating, Ducksalad ([9]; Flood, 62 g ai/ha): 0 | Plant response rating, Barnyardgrass [10, 13]: 0 | Plant response rating, Barnyardgrass [10, 14]: 0 | Plant response rating, Barnyardgrass ([10]; Flood, 31 g ai/ha): 0 | Plant response rating, Barnyardgrass ([10]; Flood, 62 g ai/ha): 0

Cc1nn(-c2ccc(F)cc2)nc1Cn1ccc(C(F)(F)F)n1 [Compound 95]
Barnyardgrass plant response rating [1, 11]: 60 | Barnyardgrass plant response rating [1, 12]: 50 | Crabgrass, Large plant response rating [2, 11]: 80 | Crabgrass, Large plant response rating [2, 12]: 100 | Foxtail, Giant plant response rating [3, 11]: 60 | Foxtail, Giant plant response rating [3, 12]: 100 | Morningglory plant response rating [4, 11]: 60 | Morningglory plant response rating [4, 12]: 0 | Pigweed plant response rating [5, 11]: 100 | Pigweed plant response rating [5, 12]: 90 | Velvetleaf plant response rating [6, 11]: 70 | Velvetleaf plant response rating [6, 12]: 40 | Wheat plant response rating [7, 11]: 0 | Wheat plant response rating [7, 12]: 0 | Corn plant response rating (corn (Zea mays); [11]): 30 | Corn plant response rating (corn (Zea mays); [12]): 10 | Plant response rating, Rice (rice (Oryza sativa); [14]): 0 | Plant response rating, Rice (rice (Oryza sativa); Flood, 62 g ai/ha): 0 | Plant response rating, Sedge, Umbrella [8, 14]: 0 | Plant response rating, Sedge, Umbrella ([8]; Flood, 62 g ai/ha): 0 | Plant response rating, Ducksalad [9, 14]: 0 | Plant response rating, Ducksalad ([9]; Flood, 62 g ai/ha): 0 | Plant response rating, Barnyardgrass [10, 14]: 0 | Plant response rating, Barnyardgrass ([10]; Flood, 62 g ai/ha): 0

Cc1nn(-c2ccc(C(F)(F)F)cc2)nc1Cn1cnc(C(F)(F)F)c1 [Compound 96]
Barnyardgrass plant response rating [1, 11]: 40 | Barnyardgrass plant response rating [1, 12]: 70 | Crabgrass, Large plant response rating [2, 11]: 70 | Crabgrass, Large plant response rating [2, 12]: 100 | Foxtail, Giant plant response rating [3, 11]: 60 | Foxtail, Giant plant response rating [3, 12]: 90 | Morningglory plant response rating [4, 11]: 80 | Morningglory plant response rating [4, 12]: 40 | Pigweed plant response rating [5, 11]: 90 | Pigweed plant response rating [5, 12]: 100 | Velvetleaf plant response rating [6, 11]: 70 | Velvetleaf plant response rating [6, 12]: 0 | Wheat plant response rating [7, 11]: 30 | Wheat plant response rating [7, 12]: 0 | Corn plant response rating (corn (Zea mays); [11]): 30 | Corn plant response rating (corn (Zea mays); [12]): 0 | Plant response rating, Rice (rice (Oryza sativa); [14]): 0 | Plant response rating, Rice (rice (Oryza sativa); Flood, 62 g ai/ha): 0 | Plant response rating, Sedge, Umbrella [8, 14]: 80 | Plant response rating, Sedge, Umbrella ([8]; Flood, 62 g ai/ha): 75 | Plant response rating, Ducksalad [9, 14]: 50 | Plant response rating, Ducksalad ([9]; Flood, 62 g ai/ha): 40 | Plant response rating, Barnyardgrass [10, 14]: 10 | Plant response rating, Barnyardgrass ([10]; Flood, 62 g ai/ha): 10

Cc1nn(-c2ccc(F)cc2)nc1Oc1cccc(C(F)(F)F)c1 [Compound 98]
Barnyardgrass plant response rating [1, 15]: 30 | Barnyardgrass plant response rating [1, 16]: 80 | Plant response rating, Barnyardgrass [1, 17]: 10 | Plant response rating, Barnyardgrass [1, 18]: 60 | Crabgrass, Large plant response rating [2, 15]: 90 | Crabgrass, Large plant response rating [2, 16]: 90 | Plant response rating, Crabgrass, Large [2, 17]: 80 | Plant response rating, Crabgrass, Large [2, 18]: 100 | Foxtail, Giant plant response rating [3, 15]: 80 | Foxtail, Giant plant response rating [3, 16]: 90 | Plant response rating, Foxtail, Giant [3, 19]: 70 | Plant response rating, Foxtail, Giant [3, 18]: 100 | Morningglory plant response rating [4, 15]: 80 | Morningglory plant response rating [4, 16]: 100 | Plant response rating, Morningglory [4, 19]: 0 | Plant response rating, Morningglory [4, 18]: 10 | Pigweed plant response rating [5, 15]: 100 | Pigweed plant response rating [5, 16]: 100 | Plant response rating, Pigweed [5, 19]: 60 | Plant response rating, Pigweed [5, 18]: 100 | Velvetleaf plant response rating [6, 15]: 60 | Velvetleaf plant response rating [6, 16]: 80 | Plant response rating, Velvetleaf [6, 19]: 0 | Plant response rating, Velvetleaf [6, 18]: 50 | Wheat plant response rating [7, 15]: 10 | Wheat plant response rating [7, 16]: 30 | Plant response rating, Wheat [7, 19]: 0 | Plant response rating, Wheat [7, 18]: 20 | Corn plant response rating (corn (Zea mays); [15]): 20 | Corn plant response rating (corn (Zea mays); [16]): 30 | Plant response rating, Corn (corn (Zea mays); [17]): 0 | Plant response rating, Corn (corn (Zea mays); [18]): 10 | Plant response rating, Rice (rice (Oryza sativa); [13]): 30 | Plant response rating, Rice (rice (Oryza sativa); [14]): 40 | Plant response rating, Rice (rice (Oryza sativa); Flood, 31 g ai/ha): 0 | Plant response rating, Rice (rice (Oryza sativa); Flood, 62 g ai/ha): 0 | Plant response rating, Sedge, Umbrella [8, 13]: 40 | Plant response rating, Sedge, Umbrella [8, 14]: 80 | Plant response rating, Sedge, Umbrella ([8]; Flood, 31 g ai/ha): 0 | Plant response rating, Sedge, Umbrella ([8]; Flood, 62 g ai/ha): 0 | Plant response rating, Ducksalad [9, 13]: 30 | Plant response rating, Ducksalad [9, 14]: 70 | Plant response rating, Ducksalad ([9]; Flood, 31 g ai/ha): 0 | Plant response rating, Ducksalad ([9]; Flood, 62 g ai/ha): 0 | Plant response rating, Barnyardgrass [10, 13]: 30 | Plant response rating, Barnyardgrass [10, 14]: 70 | Plant response rating, Barnyardgrass ([10]; Flood, 31 g ai/ha): 0 | Plant response rating, Barnyardgrass ([10]; Flood, 62 g ai/ha): 0

Cc1nn(-c2ccc(F)cc2)nc1Oc1ccnc(C(F)(F)F)n1 [Compound 101]
Barnyardgrass plant response rating [1, 15]: 20 | Barnyardgrass plant response rating [1, 16]: 60 | Plant response rating, Barnyardgrass [1, 17]: 50 | Plant response rating, Barnyardgrass [1, 18]: 80 | Crabgrass, Large plant response rating [2, 15]: 70 | Crabgrass, Large plant response rating [2, 16]: 90 | Plant response rating, Crabgrass, Large [2, 17]: 100 | Plant response rating, Crabgrass, Large [2, 18]: 100 | Foxtail, Giant plant response rating [3, 15]: 70 | Foxtail, Giant plant response rating [3, 16]: 90 | Plant response rating, Foxtail, Giant [3, 19]: 100 | Plant response rating, Foxtail, Giant [3, 18]: 100 | Morningglory plant response rating [4, 15]: 40 | Morningglory plant response rating [4, 16]: 40 | Plant response rating, Morningglory [4, 19]: 0 | Plant response rating, Morningglory [4, 18]: 10 | Pigweed plant response rating [5, 15]: 80 | Pigweed plant response rating [5, 16]: 90 | Plant response rating, Pigweed [5, 19]: 100 | Plant response rating, Pigweed [5, 18]: 100 | Velvetleaf plant response rating [6, 15]: 10 | Velvetleaf plant response rating [6, 16]: 20 | Plant response rating, Velvetleaf [6, 19]: 0 | Plant response rating, Velvetleaf [6, 18]: 0 | Wheat plant response rating [7, 15]: 0 | Wheat plant response rating [7, 16]: 10 | Plant response rating, Wheat [7, 19]: 0 | Plant response rating, Wheat [7, 18]: 0 | Corn plant response rating (corn (Zea mays); [15]): 10 | Corn plant response rating (corn (Zea mays); [16]): 20 | Plant response rating, Corn (corn (Zea mays); [17]): 0 | Plant response rating, Corn (corn (Zea mays); [18]): 10 | Plant response rating, Rice (rice (Oryza sativa); [13]): 15 | Plant response rating, Rice (rice (Oryza sativa); [14]): 20 | Plant response rating, Rice (rice (Oryza sativa); Flood, 31 g ai/ha): 0 | Plant response rating, Rice (rice (Oryza sativa); Flood, 62 g ai/ha): 0 | Plant response rating, Sedge, Umbrella [8, 13]: 50 | Plant response rating, Sedge, Umbrella [8, 14]: 75 | Plant response rating, Sedge, Umbrella ([8]; Flood, 31 g ai/ha): 0 | Plant response rating, Sedge, Umbrella ([8]; Flood, 62 g ai/ha): 0 | Plant response rating, Ducksalad [9, 13]: 50 | Plant response rating, Ducksalad [9, 14]: 65 | Plant response rating, Ducksalad ([9]; Flood, 31 g ai/ha): 0 | Plant response rating, Ducksalad ([9]; Flood, 62 g ai/ha): 20 | Plant response rating, Barnyardgrass [10, 13]: 55 | Plant response rating, Barnyardgrass [10, 14]: 60 | Plant response rating, Barnyardgrass ([10]; Flood, 31 g ai/ha): 0 | Plant response rating, Barnyardgrass ([10]; Flood, 62 g ai/ha): 0
